Measured values: paper PMC9248904, “Genomic and Chemical Decryption of the Bacteroidetes Phylum for Its Potential to Biosynthesize Natural Products” (Microbiology Spectrum, 2022)
Converted amounts (≈) assume the structure as drawn. Read-outs that look alike come from different tables or passages of the source. *1 amine or outer side, *2 acyl side, *3 side chain or, on linkers, in order; H or OH if unused. Where a SMILES comes first, the peptide text is derived from it. Bridges are numbered along the chain shown (N, C = ends). [ ]: non-standard residue; d: D form. The star is where a group is joined. Phe(3R-OH) = O=C([C@@H](N[*:1])[C@H](O[*:3])c1ccccc1)[*:2]; Asp(3S-OH) = N[C@H](C(=O)O)[C@H](O)C(=O)O; Ile(3R-OH) = CC[C@@](C)(O)[C@H](N)C(=O)O; d(aIle) = CC[C@H](C)[C@@H](N)C(=O)O; d(aThr) = C[C@@H](O)[C@@H](N)C(=O)O; X1 = CC(C)CCCCCC(N)C(C)C(=O)*; NMeV = CN[C@H](C(=O)O)C(C)C; X2 = CCCCCCCC(N)C(C)C(=O)*; Dap = NC[C@H](N)C(=O)O

Tests used:
Candida albicans FH2173 = experiment: microbe, parasite or virus in culture; type: cell-based; details: C. albicans FH2173, at least triplicate; for MIC: MHIIB, 2 days 37°C, BacTiter-Glo, Iron -
Method: (§1) The MIC was determined by broth microdilution method in 96-well plates with 100 µL assay volume per well following EUCAST instructions ([116], [117]) for E. coli ATCC 35218, E. coli ATCC 25922 ΔTolC, E. coli MG1655, Pseudomonas aeruginosa ATCC 27853, P. aeruginosa PAO750, Klebsiella pneumoniae ATCC 13883, Moraxella catarrhalis ATCC 25238, Acinetobacter baumannii ATCC 19606, Bacillus subtilis DSM 10, Staphylococcus aureus ATCC 25923, and Micrococcus luteus DSM 20030. Listeria monocytogenes DSM 20600 (1 day of incubation at 37°C) and Mycobacterium smegmatis ATCC 607 (2 days of incubation at 37°C) were grown in BHI broth supplemented with 1% (vol/vol) Tween 80. Candida albicans FH2173 was grown in MHIIB over 2 days of incubation at 37°C (pre-culture 2 days at 28°C). Approximate inoculation cell density for all strains was 500,000 CFU/mL, except 1,000,000 CFU/mL were used for M. smegmatis and C. albicans. For all fungal screenings 100,000 spores/mL were used and incubated at 37°C for Aspergillus flavus ATCC 9170 (MHIIB) and 25°C for Z. tritici MUCL45407 (4 g/L yeast extract, 4 g/L malt extract, 4 g/L sucrose) and Fusarium oxysporum ATCC 7601 (potato dextrose broth, Sigma). Growth inhibition was detected by optical density (600 nm) or for M. luteus, L. monocytogenes, C. albicans, M. smegmatis, and all fungi by quantification of free ATP using BacTiter-Glo after 24 to 48 h (72 h for Z. tritici). All MIC assays were performed at least in triplicate. FE(III)-citrate was added at molar ratios of 1:1 to samples in DMSO to test compounds in their iron bound conformation.

[1] = tested on: Fusarium oxysporum ATCC 7601; experiment: microbe, parasite or virus in culture; type: cell-based
Method: as §1

Z. tritici MUCL45407 = experiment: microbe, parasite or virus in culture; type: cell-based
Method: as §1

E. coli ATCC 25922 ΔTolC = type: cell-based, Escherichia coli; details: broth microdilution, 96-well, EUCAST, OD600, Iron -, at least triplicate
Method: as §1

E. coli ATCC 35218 = type: cell-based, Escherichia coli; details: ATCC 35218
Method: as §1

E. coli MG1655 = type: cell-based, Escherichia coli; details: broth microdilution, 96-well, EUCAST, OD600, Iron -, at least triplicate
Method: as §1

P. aeruginosa PAO750 = type: cell-based, Pseudomonas aeruginosa; details: broth microdilution, 96-well, EUCAST, OD600, Iron -, at least triplicate
Method: as §1

[2] = tested on: Acinetobacter baumannii ATCC 19606; type: cell-based; details: ATCC 19606
Method: as §1

Bacillus subtilis DSM 10 = type: cell-based; details: DSM 10
Method: as §1

[3] = tested on: Klebsiella pneumoniae ATCC 13883; type: cell-based; details: ATCC 13883
Method: as §1

[4] = tested on: Micrococcus luteus DSM 20030; type: cell-based; details: DSM 20030
Method: as §1

[5] = tested on: Moraxella catarrhalis ATCC 25238; type: cell-based; details: ATCC 25238
Method: as §1

[6] = tested on: Pseudomonas aeruginosa ATCC 27853; type: cell-based; details: ATCC 27853
Method: as §1

[7] = tested on: Staphylococcus aureus ATCC 25923; type: cell-based; details: ATCC 25923
Method: as §1

[8] = tested on: Aspergillus flavus ATCC 9170; experiment: microbe, parasite or virus in culture; type: cell-based
Method: as §1

[9] = tested on: Mycobacterium smegmatis ATCC 607; experiment: microbe, parasite or virus in culture; type: cell-based; details: Mycolicibacterium smegmatis, ATCC607, 48 h; M. smegmatis ATCC 607; BHI broth + 1% Tween 80, 2 days 37°C; BacTiter-Glo; Iron -; at least triplicate; read-out: MIC
Method: as §1

[10] = Z. tritici MUCL45407, 25°C, 72 h, 100,000 spores/mL, BacTiter-Glo, Iron -, at least triplicate

Row | Compound | MIC (E. coli ATCC 25922 ΔTolC) | MIC (E. coli ATCC 35218) | MIC [2] | MIC (Bacillus subtilis DSM 10) | MIC [4] | MIC [5] | MIC [6] | MIC [7] | MIC ([8]; ATCC 9170) | MIC (Candida albicans FH2173) | MIC ([1]; ATCC 7601) | MIC (Z. tritici MUCL45407; [10]) | further results
1 | C[C@@H]1[C@H](O)[C@@H](C)/C=C/C=C/C=C/C=C/C=C/C=C/C=C/[C@H](O[C@@H]2O[C@H](C)[C@@H](O)[C@H](N)[C@@H]2O)C[C@@H]2O[C@](O)(C[C@@H](O)C[C@@H](O)[C@H](O)CC[C@@H](O)C[C@@H](O)CC(=O)O[C@H]1C)C[C@H](O)[C@H]2C(=O)O [Amphotericin B, reference compound] |  |  |  |  |  |  |  |  |  |  |  |  | MIC (Candida albicans FH2173; Candida albicans, 48 h, read-out: MIC): 4 µg/mL (≈ 4.33 µM); MIC ([1]; Fusarium oxysporum, ATCC7601, F. oxysporum ATCC 7601, potato dextrose broth, 25°C, 100,000 spores/mL, BacTiter-Glo, Iron -, at least triplicate, read-out: MIC): 4 µg/mL (≈ 4.33 µM); MIC (Z. tritici MUCL45407; Zymoseptoria tritici, MUCL45407, 72 h): 0.031 µg/mL (≈ 0.0335 µM)
2 | CC[C@H](C)[C@H]1NC(=O)[C@H]([C@H](O)c2ccccc2)NC(=O)[C@H]([C@H](O)C(=O)O)NC(=O)[C@@H](C)NC(=O)[C@H](NC(=O)[C@H](C(C)C)N(C)C(=O)C(C)C(N)CCCCCC(C)C)[C@@H](C)OC(=O)[C@H]([C@](C)(O)CC)NC(=O)[C@H]([C@H](O)C(=O)O)NC(=O)[C@H](CC(C)C)NC(=O)[C@H]([C@H](O)C(=O)O)NC(=O)[C@@H](CC(C)C)NC(=O)[C@H](CN)NC(=O)[C@@H](CCCCN)NC(=O)[C@H](CO)NC1=O (stereo partly drawn) [Chitinopeptin A] (X1-[NMeV][d(aThr)][dA][Asp(3S-OH)][Phe(3R-OH)][d(aIle)]S[dK][Dap][dL][Asp(3S-OH)]L[Asp(3S-OH)][Ile(3R-OH)]; ester 2-C) | > 64 µg/mL | > 64 µg/mL | 16 µg/mL (≈ 8.84 µM) | 4 µg/mL (≈ 2.21 µM) | 32 µg/mL (≈ 17.7 µM) | 2 µg/mL (≈ 1.11 µM) | > 64 µg/mL | > 64 µg/mL | > 64 µg/mL | 4 µg/mL (≈ 2.21 µM) | > 64 µg/mL | 16 µg/mL (≈ 8.84 µM) | MIC (E. coli MG1655): > 256 µg/mL; MIC (P. aeruginosa PAO750): > 64 µg/mL; MIC, iron bound form (Bacillus subtilis DSM 10): 8 µg/mL (≈ 4.42 µM); MIC [3]: > 64 µg/mL; MIC, iron bound form [5]: 4 µg/mL (≈ 2.21 µM); MIC, iron bound form (Candida albicans FH2173; Iron +: Fe(III)-citrate added at molar ratio 1:1): 32 µg/mL; MIC (Candida albicans FH2173; listed as 1): 4 to 8 µg/mL
3 | CCCCCCCC(N)C(C)C(=O)N(C)[C@H](C(=O)N[C@H]1C(=O)N[C@H](C)C(=O)N[C@@H]([C@H](O)C(=O)O)C(=O)N[C@@H]([C@H](O)c2ccccc2)C(=O)N[C@H]([C@@H](C)CC)C(=O)N[C@@H](CO)C(=O)N[C@H](CCCCN)C(=O)N[C@@H](CN)C(=O)N[C@H](CC(C)C)C(=O)N[C@@H]([C@H](O)C(=O)O)C(=O)N[C@@H](CC(C)C)C(=O)N[C@@H]([C@H](O)C(=O)O)C(=O)N[C@@H]([C@](C)(O)CC)C(=O)O[C@@H]1C)C(C)C (stereo partly drawn) [Chitinopeptin B] (X2-[NMeV][d(aThr)][dA][Asp(3S-OH)][Phe(3R-OH)][d(aIle)]S[dK][Dap][dL][Asp(3S-OH)]L[Asp(3S-OH)][Ile(3R-OH)]; ester 2-C) | > 64 µg/mL | > 64 µg/mL | 64 µg/mL (≈ 35.7 µM) | 4 µg/mL (≈ 2.23 µM) | 32 µg/mL (≈ 17.8 µM) | 2 µg/mL (≈ 1.11 µM) | > 64 µg/mL | > 64 µg/mL | > 64 µg/mL | 8 µg/mL (≈ 4.46 µM) | > 64 µg/mL | 16 µg/mL (≈ 8.91 µM) | MIC (Candida albicans FH2173; listed as 2): 4 to 8 µg/mL
4 | NNC(=O)c1ccncc1 [Isoniazid, reference compound] |  |  |  |  |  |  |  |  |  |  |  |  | MIC [9]: 1 µg/mL
5 | C[C@@H]1[C@H](O)[C@@H](C)/C=C/C=C/CC/C=C/C=C/C=C/C=C/C(O[C@H]2O[C@H](C)[C@@H](O)[C@H](N)[C@@H]2O)CC2O[C@](O)(CC(O)C(O)CCC(O)CC(O)CC(O)CC(=O)O[C@H]1C)CC(O)C2C(=O)O (stereo partly shown) [Nystatin, reference compound] |  |  |  |  |  |  |  |  |  | 16 µg/mL (≈ 17.3 µM) |  | 0.5 µg/mL (≈ 0.54 µM) | MIC ([8]; A. flavus ATCC 9170, MHIIB, 37°C, 100,000 spores/mL, BacTiter-Glo, Iron -, at least triplicate): 16 µg/mL (≈ 17.3 µM); MIC ([1]; F. oxysporum ATCC 7601, potato dextrose broth, 25°C, 100,000 spores/mL, BacTiter-Glo, Iron -, at least triplicate): 4 µg/mL (≈ 4.32 µM)
